Measured values as given in PubChem BioAssay (NCI).
“And” between values parts separate entries of the source, which are not always exact repeats. Equal values may be shown once.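 Grown in 96-well plates, cells were treated for 48 hours with each compound at five concentrations. Insufficient inhibition: endpoint recorded as highest concentration tested. At the GI50, growth is halved. TGI denotes the concentration required for complete inhibition of growth.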

Experiments:
Experiment in all cases: NCI-60 cell line screen, 48 h
[1] = test system: ACHN renal
[2] = test system: HCT-116 colon
[3] = test system: HOP-62 NSCLC
[4] = test system: MALME-3M melanoma
[5] = test system: SK-MEL-5 melanoma
[6] = test system: SK-OV-3 ovarian
[7] = test system: SNB-19 CNS
[8] = test system: MCF7 breast
[9] = test system: NCI/ADR-RES ovarian
[10] = test system: PC-3 prostate

Q: Which TGI [1] does the source give for `Cc1cc(-c2ccccc2)nc(Nc2nc3ccccc3o2)n1` here?
A: > 100 µM

Q: What about the TGI [2] of the same molecule?
A: > 100 µM

Q: And the TGI [3]?
A: > 100 µM

Q: What about the TGI [4] of the same molecule?
A: > 100 µM

Q: And the TGI [5]?
A: > 100 µM

Q: What about the TGI [6] of the same molecule?
A: > 100 µM

Q: And the TGI [7]?
A: > 100 µM

Q: What does the source list for `CN(C)c1ccc(/C=C/c2ccc(/C=C/c3ccc(N(C)C)cc3)cc2)cc1`?
A: TGI [1]: > 100 µM; TGI [2]: > 100 µM; TGI [4]: > 100 µM; TGI [5]: > 100 µM; TGI [6]: > 100 µM; TGI [7]: > 100 µM

Q: With `O=C(CC1(O)C(=O)Nc2ccc(Br)cc21)c1ccc(Cl)cc1Cl` (stereo not drawn) as the molecule, how does the TGI [1] read?
A: > 100 µM

Q: And the TGI [2]?
A: > 100 µM

Q: What about the TGI [3] of the same molecule?
A: > 100 µM

Q: And the TGI [4]?
A: > 100 µM

Q: And the TGI [6]?
A: > 100 µM

Q: And the TGI [7]?
A: > 100 µM

Q: With `N#CC1CCCCOCCOCCOCCOCCOCCCCCC1=O` (stereo not drawn) as the molecule, how does the TGI [1] read?
A: > 100 µM

Q: What about the TGI [2] of the same molecule?
A: > 100 µM

Q: What about the TGI [3] of the same molecule?
A: > 100 µM

Q: And the TGI [4]?
A: > 100 µM

Q: And the TGI [5]?
A: > 100 µM

Q: What about the TGI [6] of the same molecule?
A: > 100 µM

Q: And the TGI [7]?
A: > 100 µM

Q: What does the source list for `Cc1cc(S(=O)(=O)/N=C/N(C)C)c(SC(=O)c2ccc(Cl)cc2)cc1Cl`?
A: GI50 [1]: 22.7 µM; TGI [1]: 47.1 µM; GI50 [2]: 24.1 µM; TGI [2]: 59.3 µM; GI50 [3]: 41.8 µM; TGI [3]: > 100 µM; GI50 [8]: 37.1 µM; TGI [8]: > 100 µM; GI50 [9]: 28.4 µM; TGI [9]: 72.2 µM; GI50 [10]: 27.6 µM; TGI [10]: 90.8 µM; GI50 [5]: 10.8 µM; TGI [5]: 36.5 µM; GI50 [6]: > 100 µM; TGI [6]: > 100 µM; GI50 [7]: 53.8 µM; TGI [7]: > 100 µM

Q: For `CS(=O)(=O)NNS(=O)(=O)c1ccccc1`, which TGI [1] is on record?
A: > 100 µM

Q: And the TGI [2]?
A: > 100 µM

Q: And the TGI [3]?
A: > 100 µM

Q: And the TGI [4]?
A: > 100 µM

Q: And the TGI [5]?
A: > 100 µM

Q: What about the TGI [7] of the same molecule?
A: > 100 µM

Q: How did the TGI [1] turn out when `CC(=O)NC1C(OCc2ccccc2)OC(CO)C(O)C1OC(C)C(=O)N[C@@H](C)C(=O)N[C@H](CCC(=O)OCCNc1c2ccccc2nc2cccc([N+](=O)[O-])c12)C(N)=O` (stereo partly drawn) was run?
A: 0.0071 µM

Q: And the TGI [2]?
A: 0.00243 µM

Q: And the TGI [4]?
A: 0.00356 µM

Q: What about the TGI [5] of the same molecule?
A: 0.00855 µM

Q: What about the TGI [6] of the same molecule?
A: 0.0288 µM

Q: And the TGI [7]?
A: 0.00277 µM and 0.00694 µM

Q: `O=[N+]([O-])c1ccc(Cl)c(C2CC(c3cccc4ccccc34)=Nc3ccccc3S2)c1` (stereo not drawn) was tested. Which TGI [1] did it give?
A: > 100 µM

Q: What about the TGI [2] of the same molecule?
A: 38.7 µM

Q: What about the TGI [3] of the same molecule?
A: > 100 µM

Q: And the TGI [4]?
A: > 100 µM

Q: What about the TGI [5] of the same molecule?
A: > 31.6 µM

Q: And the TGI [6]?
A: > 100 µM

Q: And the TGI [7]?
A: > 100 µM

Q: How did the TGI [1] turn out when `COC(=O)C1OC2(CCCC3CC32)O[C@H]1C(=O)OC` (stereo partly drawn) was run?
A: > 100 µM

Q: What about the TGI [2] of the same molecule?
A: > 100 µM

Q: And the TGI [3]?
A: > 100 µM

Q: And the TGI [4]?
A: > 100 µM

Q: And the TGI [8]?
A: > 100 µM

Q: What about the TGI [9] of the same molecule?
A: > 100 µM

Q: And the TGI [10]?
A: > 100 µM

Q: And the TGI [6]?
A: > 100 µM

Q: And the TGI [7]?
A: > 100 µM

Q: For `CC1=CC(=O)C(C(C)C)=CC1=Nc1cc(Br)c(O)c(Br)c1`, which GI50 [1] is on record?
A: 11.6 µM

Q: What about the TGI [1] of the same molecule?
A: 30.1 µM

Q: And the GI50 [2]?
A: 3.39 µM

Q: And the TGI [2]?
A: 11.6 µM

Q: What about the GI50 [3] of the same molecule?
A: 6.29 µM

Q: What about the TGI [3] of the same molecule?
A: 45.2 µM

Q: What about the GI50 [4] of the same molecule?
A: 14.1 µM

Q: And the TGI [4]?
A: 33.4 µM

Q: And the GI50 [8]?
A: 4.27 µM

Q: What about the TGI [8] of the same molecule?
A: 17.7 µM

Q: And the GI50 [5]?
A: 3.15 µM

Q: What about the TGI [5] of the same molecule?
A: 10.7 µM

Q: And the GI50 [6]?
A: 3.45 µM

Q: What about the TGI [6] of the same molecule?
A: 15.9 µM

Q: What about the GI50 [7] of the same molecule?
A: 9.95 µM

Q: And the TGI [7]?
A: 26.1 µM

Q: Which results are given for `COC(=O)/C(=N/Nc1cccc(Cl)c1)C(C(=O)C(=O)Nc1cccc(Cl)c1C)c1nc2ccccc2nc1C` (stereo not drawn)?
A: TGI [1]: > 100 µM; TGI [2]: > 100 µM; TGI [3]: > 100 µM; TGI [4]: > 100 µM; TGI [5]: > 100 µM; TGI [6]: > 100 µM

Q: With `O=[N+]([O-])c1ccc(-c2noc(-c3ccc(Cl)cc3)c2C2=NCCN2)cc1` as the molecule, how does the TGI [1] read?
A: > 100 µM

Q: What about the TGI [2] of the same molecule?
A: > 100 µM

Q: And the TGI [3]?
A: > 100 µM

Q: What about the TGI [4] of the same molecule?
A: > 100 µM

Q: And the TGI [5]?
A: > 100 µM

Q: And the TGI [7]?
A: > 100 µM

Q: With `S=c1nc(COc2ccc(Cl)cc2Cl)[nH][nH]1` as the molecule, how does the TGI [1] read?
A: > 100 µM

Q: And the TGI [2]?
A: > 100 µM

Q: What about the TGI [4] of the same molecule?
A: > 100 µM

Q: And the TGI [5]?
A: > 100 µM

Q: And the TGI [7]?
A: > 100 µM

Q: Which results are given for `Nc1cc(O)ccc1N=Nc1ccc(-c2nc3ccccc3[nH]2)cc1`?
A: GI50 [1]: 34 µM; TGI [1]: > 100 µM; GI50 [2]: 41.2 µM; TGI [2]: > 100 µM; GI50 [3]: > 100 µM; TGI [3]: > 100 µM; GI50 [9]: > 100 µM; TGI [9]: > 100 µM; GI50 [10]: 20.4 µM; TGI [10]: > 100 µM; GI50 [5]: 38.8 µM; TGI [5]: > 100 µM; GI50 [6]: > 100 µM; TGI [6]: > 100 µM; GI50 [7]: > 100 µM; TGI [7]: > 100 µM

Q: Which results are given for `CN(C)C(=Nc1nc(=[N+](C)C)ss1)N(C)C`?
A: TGI [1]: > 100 µM; TGI [3]: > 100 µM; TGI [5]: > 100 µM; TGI [6]: > 100 µM; TGI [7]: > 100 µM

Q: Which results are given for `O=[N+]([O-])c1ccc(Oc2nc(Nc3ccc(O[C@H]4CO[C@H]5[C@@H]4OC[C@@H]5O)c(Cl)c3)ncc2F)c(Cl)c1`?
A: GI50 [1]: 0.79 µM; TGI [1]: 4.55 µM; GI50 [3]: 1.63 µM; TGI [3]: 4.65 µM; GI50 [4]: 1.07 µM; TGI [4]: 3.17 µM; GI50 [8]: 1.66 µM; TGI [8]: 4.16 µM; GI50 [9]: 9.04 µM; TGI [9]: > 100 µM; GI50 [10]: 1.66 µM; TGI [10]: 7.04 µM; GI50 [5]: 1.29 µM; TGI [5]: 2.59 µM; GI50 [7]: 2.89 µM; TGI [7]: 9.81 µM

Q: For `COc1ccc(S(=O)(=O)NC2=NCCN2C(=S)SN2CCn3c2nsc3=S)cc1`, which GI50 [1] is on record?
A: 12.9 µM

Q: And the TGI [1]?
A: 26 µM

Q: And the GI50 [2]?
A: 14.4 µM

Q: And the TGI [2]?
A: 27.9 µM

Q: And the GI50 [3]?
A: 18.9 µM

Q: And the TGI [3]?
A: 39.2 µM

Q: What about the GI50 [4] of the same molecule?
A: 9.1 µM

Q: And the TGI [4]?
A: 24.9 µM

Q: And the GI50 [8]?
A: 12.4 µM

Q: And the TGI [8]?
A: 27.2 µM

Q: And the GI50 [9]?
A: 32.5 µM

Q: What about the TGI [9] of the same molecule?
A: > 100 µM

Q: What about the GI50 [10] of the same molecule?
A: 17.5 µM

Q: What about the TGI [10] of the same molecule?
A: 40.1 µM

Q: And the GI50 [5]?
A: 17.8 µM

Q: And the TGI [5]?
A: 31.7 µM

Q: And the GI50 [7]?
A: 32.9 µM

Q: And the TGI [7]?
A: > 100 µM

Q: For `COC(=O)CCC1CCc2c(OC)ccc(OC)c2C1=O` (stereo not drawn), which TGI [1] is on record?
A: > 100 µM

Q: And the TGI [3]?
A: > 100 µM

Q: And the TGI [4]?
A: > 100 µM

Q: And the TGI [5]?
A: > 100 µM

Q: What about the TGI [6] of the same molecule?
A: > 100 µM

Q: What about the TGI [7] of the same molecule?
A: > 100 µM

Q: What does the source list for `O=C(NCCO)c1ccc([N+](=O)[O-])cc1`?
A: TGI [3]: > 100 µM; TGI [4]: > 100 µM; TGI [5]: > 100 µM; TGI [6]: > 100 µM; TGI [7]: > 100 µM

Q: What does the source list for `CCCCC(C)C(OC(=O)CC(CC(=O)O)C(=O)O)C(CC(C)CC(O)CCCCC(O)CC(O)C(C)N)OC(=O)CC(CC(=O)O)C(=O)O` (stereo not drawn)?
A: TGI [1]: > 100 µM; TGI [2]: > 100 µM; TGI [3]: > 100 µM; TGI [4]: > 100 µM; TGI [5]: > 100 µM; TGI [6]: > 100 µM; TGI [7]: > 100 µM

Q: Which GI50 [1] does the source give for `COc1cccc2c1-c1c(c3ccc([N+](=O)[O-])cc3c(=O)n1CCCN)C2=O` here?
A: 0.884 µM

Q: What about the TGI [1] of the same molecule?
A: 6.65 µM

Q: What about the GI50 [2] of the same molecule?
A: 0.49 µM

Q: And the TGI [2]?
A: 2.25 µM

Q: And the GI50 [3]?
A: 1.13 µM

Q: And the TGI [3]?
A: 2.5 µM

Q: And the GI50 [8]?
A: 0.0486 µM

Q: What about the TGI [8] of the same molecule?
A: 1.59 µM

Q: And the GI50 [9]?
A: 3.99 µM

Q: What about the TGI [9] of the same molecule?
A: 19.1 µM

Q: And the GI50 [10]?
A: 1.43 µM

Q: And the TGI [10]?
A: 4.03 µM

Q: And the GI50 [5]?
A: 1.91 µM

Q: What about the TGI [5] of the same molecule?
A: 7.38 µM

Q: What about the GI50 [6] of the same molecule?
A: 11.5 µM

Q: And the TGI [6]?
A: 29.8 µM

Q: And the GI50 [7]?
A: 1.35 µM

Q: What about the TGI [7] of the same molecule?
A: 2.93 µM

Q: What does the source list for `CN(C)c1nnnn1-c1c(N)n(C)c(=O)n(C)c1=O`?
A: TGI [1]: > 100 µM; TGI [2]: > 100 µM; TGI [3]: > 100 µM; TGI [4]: > 100 µM; TGI [5]: > 100 µM; TGI [6]: > 100 µM; TGI [7]: > 100 µM
